How the values were obtained:
[1] = test system: G6Pase; assay: Liver gene expression in GK rats after 8 weeks L-Asp diet (quantitative PCR): G6Pase; type: in vivo, rat; conditions: 3% L-Asp diet (3AS), CON group = 1.00
Description: Specifically, L-Asp as mixed in a diet was administered to GK rats over a long time, and the effect of the administration on gene expression in the liver and disease state was determined.
Male 6-week-old GK rats were purchased, pre-fed for one week, grouped into the following groups each including five rats, the diet was replaced with experimental diets, and the rats were fed with the experimental diets for eight weeks.
On week eight of administration, the liver was extirpated after eighteen-hour fasting, RNAs were extracted, and the gene expressions were determined through quantitative PCR and compared.

[2] = test system: TRB3; assay: TRB3 mRNA in Fao cells with L-Asp, L-Ala or both (quantitative PCR); type: cell-based, rat; conditions: 3 h, L-Asp 0.05 mM, L-Ala 0.03 mM or both
Description: Whether the suppressive effect of L-Asp on TRB3 expression in rat hepatocyte-derived Fao cells is increased by adding L-Ala as another amino acid was studied. Whether the expression of HNF-4α is increased was also studied. Fao cells were inoculated on a 24-well plate to an amount of 2×10^5 cells/well, and the cells were cultivated in a 10% fetal bovine serum-containing RPMI 1640 medium (supplied from Nacalai Tesque, Inc.; Code No. 30264-85) at 37° C. in an atmosphere of 5% CO2 overnight. On the following day, the medium was replaced with one of a 10% fetal bovine serum-containing RPMI medium from which all amino acids had been removed (minus amino acid medium; Table 1) and media corresponding to the minus amino acid medium, except with L-Asp (concentration: 0.05 mM), L-Ala (concentration: 0.03 mM), or both added, and the cells were further cultivated at 37° C. in 2.5% CO2 atmosphere for three hours. RNAs were extracted from the cultured cells, and the TRB3 mRNA levels and the HNF-4α mRNA levels were determined through quantitative polymerase chain reaction (PCR) (Table 10).

[3] = test system: TRB3; assay: Suppressive effects of amino acids on TRB3 expression in cultured hepatocytes (Fao cells, quantitative PCR); type: cell-based, rat; conditions: other experiments; 0.03 mM to 0.3 mM
[4] = test system: PPAR-alpha; assay: Liver gene expression in high-fat diet GK rats after 6-week administration (quantitative PCR): PPAR-alpha; type: in vivo, rat
Excerpt: (§1) The mRNA levels are expressed while defining the level in the SD group as 1.00. <Primer Sequence>

[5] = test system: ACO; assay: Liver gene expression in high-fat diet GK rats after 6-week administration (quantitative PCR): ACO; type: in vivo, rat
Excerpt: as §1

[6] = HFD + Asp, 6-week administration, HFD = 1.00 in table, n = 6, mean
[7] = L-Asp administration, 6 weeks, HFD

SMILES: N[C@@H](CC(=O)O)C(=O)O [L-Asp, L-aspartic acid]
- G6Pase mRNA level in liver [1]: 0.99 ± 0.15
- TRB3 mRNA level ([2]; minus amino acid medium = 1.00): 0.54
- expression level of TRB3 mRNA ([2]; of minus amino acid medium): 54%
- suppression of TRB3 expression [3]: significantly suppresses the TRB3 expression
- PPARα mRNA level in liver [4, 6]: 1.34
- PPAR-alpha gene expression [4, 7]: 1.34 time
- ACO mRNA level in liver [5, 6]: 1.18
- ACO gene expression [5, 7]: 1.18 time

— patent US20080038321A1, “PROPHYLACTIC/THERAPEUTIC COMPOSITIONS FOR LIVER DISEASES” (Ajinomoto Co., Inc., priority 2004, published 2008)
